In patent publication US9353082B2, “Pharmaceutical compounds” (BIAL—PORTELA & CA, S.A., priority 2008, dated 2016):

Tests used:
FAAH [1] = target: T1, FAAH (Mus musculus, UniProt O08914); assay: In vivo FAAH inhibition after oral dosing, remaining activity in brain homogenate (BRh, central nervous tissue); set-up: species or system NMRI mice; conditions: 8 h
T1 construct: A fragment of liver, left lung lobe and brain without cerebellum were removed; from tissue; host or cells: male NMRI mice; brain (without cerebellum) and liver homogenates
T1 sequence (O08914 1-579): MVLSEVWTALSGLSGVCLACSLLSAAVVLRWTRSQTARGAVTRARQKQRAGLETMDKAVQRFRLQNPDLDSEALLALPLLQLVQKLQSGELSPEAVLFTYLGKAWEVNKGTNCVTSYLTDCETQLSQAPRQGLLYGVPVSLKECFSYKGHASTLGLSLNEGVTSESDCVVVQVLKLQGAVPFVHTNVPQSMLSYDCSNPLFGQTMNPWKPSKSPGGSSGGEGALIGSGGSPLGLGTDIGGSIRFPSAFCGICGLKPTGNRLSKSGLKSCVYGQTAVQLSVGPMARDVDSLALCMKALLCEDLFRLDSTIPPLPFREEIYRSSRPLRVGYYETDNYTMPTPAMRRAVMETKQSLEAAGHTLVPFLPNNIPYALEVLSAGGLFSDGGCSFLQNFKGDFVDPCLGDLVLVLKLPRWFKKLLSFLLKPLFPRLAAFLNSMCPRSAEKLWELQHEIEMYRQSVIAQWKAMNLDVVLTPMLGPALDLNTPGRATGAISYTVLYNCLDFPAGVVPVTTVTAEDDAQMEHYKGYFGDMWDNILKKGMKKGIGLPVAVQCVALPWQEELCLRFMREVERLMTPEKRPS
In short: (§1)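 Remaining FAAH activity is given as % of vehicle-treated controls after blank subtraction, measured by radiolabelled AEA hydrolysis (2 μM AEA, 5 nM 3H-AEA, 37 °C) in brain (10 min) or liver (7 min) homogenates. These came from fasted male NMRI mice dosed orally at 30 or 3 mg/kg.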

carboxylesterase (CE) [2] = assay: Carboxylesterase (CE) activity in rat liver microsomes (LVms), p-nitrophenyl acetate; type: biochemical; conditions: 10 uM compound, read 10 min after substrate, remaining CE activity
Method: (§2) FAAH inhibition was determined as described above. Inhibition of monoacylglycerol lipase (MAGL) and carboxylesterase (CE) was performed according to the protocols described below. The controls for both in vitro and in vivo were the reaction mix minus the test compounds. Therefore, a low value in Table 2 below for the test compounds indicates a strong inhibitor.
(§3) CE activity measurement is based on the formation of p-nitrophenol from p-nitrophenyl acetate. Briefly, in 96-well plates 8 μg/ml of rat or mouse liver microsomes (LVms) were incubated with 10 μM FAAH inhibitors for 15 min and then the substrate, p-nitrophenyl acetate, was added to a final concentration of 1 mM. The plate was read at 405 nm 10 min after substrate addition for the appearance of p-nitrophenol using a spectrophotometer. The carboxylesterase activity in microsome extracts without inhibitor added were set at 100% as control and the remaining CE activities after incubation with inhibitors were calculated relative to the control.

carboxylesterase (CE) [3] = assay: Carboxylesterase (CE) activity in mouse liver microsomes (LVms), p-nitrophenyl acetate; type: biochemical; conditions: 10 uM compound, read 10 min after substrate, remaining CE activity
Method: as §2, §3

FAAH [4] = target: T1, FAAH; assay: In vivo FAAH inhibition after oral dosing, remaining activity in liver homogenate (LVh, peripheral tissue); set-up: species or system NMRI mice; conditions: 8 h
In short: as §1

Structure (SMILES): COc1cccc(-c2cn(C(=O)N3CCCc4ccccc43)cn2)c1 [Compound 39, (3,4-dihydroquinolin-1(2H)-yl)(4-(3-methoxyphenyl)-1H-imidazol-1-yl)methanone]
- In Vivo BRh 3 mg/kg 8 h, remaining FAAH activity (FAAH [1]; brain homogenate, 3 mg/kg): 120.6 % of control
- FAAH BRh 3 mg · kg · 8 h (FAAH [1]; in vivo, mouse brain, 3 mg/kg oral, remaining enzymatic activity): 120.6 % of control
- CE Rat LVms 10 uM 10 min (carboxylesterase (CE) [2]): 94.7 % of control
- CE Mou LVms 10 uM 10 min (carboxylesterase (CE) [3]): 84.3 % of control
- FAAH LVh 3 mg · kg · 8 h (FAAH [4]; in vivo, mouse liver, 3 mg/kg oral, remaining enzymatic activity): 101.1 % of control
- In Vivo LVh 3 mg/kg 8 h, remaining FAAH activity (FAAH [4]; liver homogenate, 3 mg/kg): 101.1 % of control
